Test results reported in ChEMBL document CHEMBL1201862, “PubChem BioAssay data set” (2004).
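Compound exposure: 48 hours, 5 concentrations, 96-well plates. GI50: concentration for 50% inhibition of growth.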 Active and inactive are the calls of the source. Cut-off read from the data, not from the text of the source: active = GI50 up to about 1.1 µM and inactive = higher.

Tests used:
Assay in all cases: NCI tumour cell line growth inhibition, 48 h
[1] = tested on: A549
[2] = tested on: COLO 205
[3] = tested on: HCT-116
[4] = tested on: HOP-62
[5] = tested on: HT-29
[6] = tested on: IGROV-1
[7] = tested on: K562
[8] = tested on: LOX IMVI
[9] = tested on: OVCAR-3
[10] = tested on: OVCAR-4
[11] = tested on: OVCAR-5
[12] = tested on: RXF 393
[13] = tested on: SF-295
[14] = tested on: SK-MEL-28
[15] = tested on: SK-MEL-2
[16] = tested on: SK-MEL-5
[17] = tested on: SNB-75
[18] = tested on: TK-10
[19] = tested on: UACC-62
[20] = tested on: UO-31

SMILES | GI50 [1] | GI50 [2] | GI50 [3] | GI50 [4] | GI50 [5] | GI50 [6] | GI50 [7] | GI50 [8] | GI50 [9] | GI50 [10] | GI50 [11] | GI50 [12] | GI50 [13] | GI50 [14] | GI50 [15] | GI50 [16] | GI50 [17] | GI50 [18] | GI50 [19] | GI50 [20]
COc1ccc(-c2cc(C(O)C3CCCCN3)c3ccccc3n2)cc1 (centres undefined) | 13.8 µM (inactive) | 1.89 µM (inactive) | 9.35 µM (inactive) | 11.7 µM (inactive) | 3.11 µM (inactive) | 8.45 µM (inactive) | 2.54 µM (inactive) | 2.62 µM (inactive) | 14.4 µM (inactive) | 13.7 µM (inactive) | 12 µM (inactive) | 4.58 µM (inactive) | 14.7 µM (inactive) | 2.43 µM (inactive) | 6.12 µM (inactive) | 6.25 µM (inactive) | 4.31 µM (inactive) | 10.4 µM (inactive) | 3.37 µM (inactive) | 3.59 µM (inactive)
Brc1ccc(C2CC(c3cccc4ccccc34)=Nc3ccccc3S2)cc1 (centres undefined) | > 100 µM (inactive) | > 100 µM (inactive) | 31.3 µM (inactive) | > 100 µM (inactive) | 46.7 µM (inactive) | > 100 µM (inactive) | 26.2 µM (inactive) | 44.8 µM (inactive) | – | 44.6 µM (inactive) | > 100 µM (inactive) | > 100 µM (inactive) | 37.3 µM (inactive) | > 100 µM (inactive) | > 100 µM (inactive) | > 100 µM (inactive) | > 100 µM (inactive) | > 100 µM (inactive) | 71.9 µM (inactive) | 54.3 µM (inactive)
O=C(O)/C=C/c1c[nH]cn1 | > 500 µM (inactive) | > 500 µM (inactive) | > 500 µM (inactive) | 493 µM (inactive) | > 500 µM (inactive) | > 500 µM (inactive) | > 500 µM (inactive) | > 500 µM (inactive) | > 500 µM (inactive) | > 500 µM (inactive) | > 500 µM (inactive) | > 500 µM (inactive) | > 500 µM (inactive) | > 500 µM (inactive) | > 500 µM (inactive) | > 232 µM (inactive) | > 500 µM (inactive) | – | > 500 µM (inactive) | > 500 µM (inactive)
O=C(Nc1ccc(C2=NCCN2)cc1)c1cncc(C(=O)Nc2ccc(C3=NCCN3)cc2)c1 | > 100 µM (inactive) | > 100 µM (inactive) | > 100 µM (inactive) | > 100 µM (inactive) | > 100 µM (inactive) | > 100 µM (inactive) | > 100 µM (inactive) | > 100 µM (inactive) | > 100 µM (inactive) | > 100 µM (inactive) | > 100 µM (inactive) | > 100 µM (inactive) | > 100 µM (inactive) | > 31.6 µM (inactive) | > 100 µM (inactive) | > 100 µM (inactive) | > 31.6 µM (inactive) | – | > 100 µM (inactive) | > 100 µM (inactive)
CCCC(=O)OC[n+]1ccc2c(C)c3[nH]c4ccc(OC)cc4c3c(C)c2c1 | 0.306 µM (active) | 0.427 µM (active) | 0.0552 µM (active) | 0.714 µM (active) | 0.0931 µM (active) | 0.625 µM (active) | – | 0.23 µM (active) | 0.873 µM (active) | 1.03 µM (active) | 0.675 µM (active) | 1.09 µM (active) | 0.581 µM (active) | 0.74 µM (active) | 1.16 µM (inactive) | 1.19 µM (inactive) | 1.16 µM (inactive) | 2.9 µM (inactive) | 1.06 µM (active) | 1.74 µM (inactive)
CCC1CN2CCC1CC2 (centres undefined) | > 100 µM (inactive) | > 100 µM (inactive) | > 100 µM (inactive) | > 100 µM (inactive) | > 100 µM (inactive) | > 100 µM (inactive) | > 100 µM (inactive) | > 100 µM (inactive) | > 100 µM (inactive) | > 100 µM (inactive) | > 100 µM (inactive) | > 100 µM (inactive) | > 100 µM (inactive) | > 100 µM (inactive) | > 100 µM (inactive) | > 100 µM (inactive) | > 100 µM (inactive) | – | > 100 µM (inactive) | > 100 µM (inactive)
Cn1c2ccccc2c(=O)c2c(O)cc3c(c21)C=CC(C)(C)O3 [NORACRONYCINE] | > 25 µM (inactive) | > 25 µM (inactive) | > 25 µM (inactive) | > 25 µM (inactive) | > 25 µM (inactive) | > 25 µM (inactive) | > 25 µM (inactive) | > 25 µM (inactive) | > 25 µM (inactive) | > 25 µM (inactive) | > 25 µM (inactive) | > 10.2 µM (inactive) | > 25 µM (inactive) | > 25 µM (inactive) | > 25 µM (inactive) | > 25 µM (inactive) | > 16.8 µM (inactive) | – | > 25 µM (inactive) | > 25 µM (inactive)
COc1cc(C(C)c2cc3c(cc2OCCO)OCO3)cc(OC)c1OC (centres undefined) | 2.32 µM (inactive) | 1.34 µM (inactive) | 1.38 µM (inactive) | 1.74 µM (inactive) | 0.436 µM (active) | 0.832 µM (active) | 0.486 µM (active) | 2.75 µM (inactive) | 0.538 µM (active) | 45.3 µM (inactive) | > 100 µM (inactive) | 0.63 µM (active) | 0.413 µM (active) | – | 2 µM (inactive) | 0.667 µM (active) | 1.2 µM (inactive) | 18.3 µM (inactive) | 0.601 µM (active) | 5.82 µM (inactive)
COc1c(Cl)cc(S(=O)O)cc1Cl | – | – | > 100 µM (inactive) | > 100 µM (inactive) | > 100 µM (inactive) | – | > 100 µM (inactive) | > 100 µM (inactive) | > 100 µM (inactive) | > 100 µM (inactive) | > 100 µM (inactive) | > 100 µM (inactive) | – | > 100 µM (inactive) | > 100 µM (inactive) | – | > 100 µM (inactive) | > 100 µM (inactive) | > 100 µM (inactive) | > 100 µM (inactive)
COc1ccc([I+]c2ccc(OC)cc2)cc1 | 1.87 µM (inactive) | 60.5 µM (inactive) | – | 12.1 µM (inactive) | 39 µM (inactive) | > 66.8 µM (inactive) | 21.1 µM (inactive) | 28.6 µM (inactive) | 26.7 µM (inactive) | > 75.2 µM (inactive) | > 100 µM (inactive) | > 100 µM (inactive) | 30 µM (inactive) | 73.6 µM (inactive) | > 100 µM (inactive) | 5.75 µM (inactive) | 28.9 µM (inactive) | > 100 µM (inactive) | > 100 µM (inactive) | > 100 µM (inactive)
C[C@H]1[C@@H]2C[C@@H]3O[C@@]34[C@H]3CCC5Cc6nc7c(nc6C[C@@]5(C)[C@]3(O)CC(=O)[C@@]24CO[C@]12OC(C)(C)C[C@@H]2O)CC1CC[C@@H]2C3=C[C@H]4O[C@@]5(OC(C)(CO)C[C@@H]5O)[C@H](C)[C@@]4(O)[C@]3(C)[C@@H](O)CC2[C@]1(C)C7 (some centres undefined) | 0.0168 µM (active) | 0.0655 µM (active) | 0.0583 µM (active) | 0.0109 µM (active) | 0.014 µM (active) | 0.0291 µM (active) | 0.0266 µM (active) | 0.024 µM (active) | 0.7 µM (active) | 0.194 µM (active) | 0.0343 µM (active) | 0.00178 µM (active) | 0.00215 µM (active) | – | 0.0239 µM (active) | 0.0873 µM (active) | 0.00071 µM (active) | – | 0.0175 µM (active) | 0.223 µM (active)
O=C(O)CCCCCCCCC(=O)O [SEBACIC ACID] | 108 µM (inactive) | > 79.3 µM (inactive) | > 500 µM (inactive) | > 50 µM (inactive) | > 23.2 µM (inactive) | > 500 µM (inactive) | > 500 µM (inactive) | > 500 µM (inactive) | 79.3 µM (inactive) | > 50 µM (inactive) | > 500 µM (inactive) | 50 µM (inactive) | 79.3 µM (inactive) | > 500 µM (inactive) | > 500 µM (inactive) | > 23.2 µM (inactive) | > 79.3 µM (inactive) | – | > 79.3 µM (inactive) | > 79.3 µM (inactive)
COc1ccc(-c2nnc3c4ccccc4sn23)cc1 | 25.4 µM (inactive) | 42.4 µM (inactive) | 30.2 µM (inactive) | 5.69 µM (inactive) | 26.8 µM (inactive) | 19.8 µM (inactive) | 16.6 µM (inactive) | 14.8 µM (inactive) | 17.1 µM (inactive) | 47 µM (inactive) | > 100 µM (inactive) | 6.43 µM (inactive) | – | 22.8 µM (inactive) | 19 µM (inactive) | 34.4 µM (inactive) | 10.2 µM (inactive) | > 100 µM (inactive) | 35.4 µM (inactive) | 14.3 µM (inactive)
CC(=O)N(CCN1C(=O)c2ccccc2C1=O)CCN1C(=O)c2ccccc2C1=O | > 100 µM (inactive) | > 100 µM (inactive) | > 100 µM (inactive) | > 100 µM (inactive) | – | – | > 100 µM (inactive) | > 100 µM (inactive) | > 100 µM (inactive) | > 100 µM (inactive) | – | > 100 µM (inactive) | > 100 µM (inactive) | > 100 µM (inactive) | > 100 µM (inactive) | > 100 µM (inactive) | > 100 µM (inactive) | > 100 µM (inactive) | > 100 µM (inactive) | > 100 µM (inactive)
N#C/C(=C\c1ccc(Br)cc1)c1nc(-c2cc3ccccc3oc2=O)cs1 | 35.1 µM (inactive) | > 50 µM (inactive) | 17.5 µM (inactive) | 8.73 µM (inactive) | 23.3 µM (inactive) | 12.3 µM (inactive) | 37.2 µM (inactive) | 24.8 µM (inactive) | – | 17.2 µM (inactive) | 31 µM (inactive) | 19.2 µM (inactive) | 18.5 µM (inactive) | 28.2 µM (inactive) | 17.1 µM (inactive) | 21.8 µM (inactive) | 7.14 µM (inactive) | 10.2 µM (inactive) | 10.2 µM (inactive) | 20.2 µM (inactive)
